The results in this text go back to US20190135834A1, “5-SUBSTITUTED AZABENZIMIDAZOLE DERIVATIVE HAVING ???? ACTIVATION ACTION” (Shionogi & Co., Ltd., priority 2016, published 2019).

In the assay the target is T1, Human AMPK α2ß2γ1 (Homo sapiens, UniProt O43741+P54646).
T1 construct: The full length cDNAs of human AMPK ß2 (NM_005399.3) and human AMPK α2 (NM_006252.3); The full length cDNAs of human AMPK ß2 (NM_005399.3); 6xHis (N); made in house; host or cells: Escherichia coli BL21 CodonPlus (DE3)-RIL
T1 sequence (P54646 whole entry): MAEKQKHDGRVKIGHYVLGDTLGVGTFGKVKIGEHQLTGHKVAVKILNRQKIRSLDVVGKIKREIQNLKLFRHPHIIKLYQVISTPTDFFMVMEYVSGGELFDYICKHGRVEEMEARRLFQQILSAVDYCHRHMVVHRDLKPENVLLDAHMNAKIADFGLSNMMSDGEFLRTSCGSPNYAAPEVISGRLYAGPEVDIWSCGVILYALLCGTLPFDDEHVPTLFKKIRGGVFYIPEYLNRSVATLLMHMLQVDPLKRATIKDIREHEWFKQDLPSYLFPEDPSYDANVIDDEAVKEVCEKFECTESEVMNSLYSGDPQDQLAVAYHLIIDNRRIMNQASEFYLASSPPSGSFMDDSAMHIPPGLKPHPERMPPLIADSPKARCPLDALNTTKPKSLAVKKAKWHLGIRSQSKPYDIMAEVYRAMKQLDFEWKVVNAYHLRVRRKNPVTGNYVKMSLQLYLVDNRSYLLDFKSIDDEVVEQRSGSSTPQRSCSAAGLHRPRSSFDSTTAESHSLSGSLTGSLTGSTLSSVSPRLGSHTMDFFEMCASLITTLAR
T1 sequence (O43741 whole entry): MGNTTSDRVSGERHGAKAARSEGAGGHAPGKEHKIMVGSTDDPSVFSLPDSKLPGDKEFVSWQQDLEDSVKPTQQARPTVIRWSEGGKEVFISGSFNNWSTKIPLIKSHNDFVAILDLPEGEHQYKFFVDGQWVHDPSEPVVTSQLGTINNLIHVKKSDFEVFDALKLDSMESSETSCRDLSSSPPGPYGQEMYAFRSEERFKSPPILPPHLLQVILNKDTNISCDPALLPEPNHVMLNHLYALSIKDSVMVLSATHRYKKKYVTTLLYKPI
T1 sequence (P54619 whole entry partner): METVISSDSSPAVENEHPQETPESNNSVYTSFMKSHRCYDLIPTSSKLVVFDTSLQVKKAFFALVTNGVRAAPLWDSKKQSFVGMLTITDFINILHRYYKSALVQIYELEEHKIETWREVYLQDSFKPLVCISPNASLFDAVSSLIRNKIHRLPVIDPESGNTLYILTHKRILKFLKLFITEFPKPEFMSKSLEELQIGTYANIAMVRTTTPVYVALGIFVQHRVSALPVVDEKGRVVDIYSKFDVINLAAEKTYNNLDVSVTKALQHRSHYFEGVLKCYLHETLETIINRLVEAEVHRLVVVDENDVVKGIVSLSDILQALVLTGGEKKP
The assay is described as follows: Test Example 2: evaluation of an activator for AMP-activated protein kinase (AMPK), LabChip mobility shift assay with CaMKK2-phosphorylated enzyme. The class given is biochemical. The settings on record: for EC150 (compound concentration showing 150% relative to the control (100%)): FL-Peptide 7 substrate, 25° C., 2 hours; for Emax: relative to control (100%), read-out: Emax (maximum rate of increase in activity within the measurement range). The essentials: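 E. coli-expressed His-tagged human AMPK α2β2γ1 preactivated with GST-CaMKK2 (0.2 mM ATP, 25° C, 1–1.5 h), preincubated 10 min with compound (1% DMSO), then reacted 2 h at 25° C with 3 μM FL-Peptide 7 and 0.4 mM ATP in substrate solution, pH 7.0. Mobility-shift conversion rate gives % activity increase over no-compound control.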

In general, Emax refers to the maximal effect, on the per cent scale that the assay sets.

Each structure is given as a SMILES string.

Consider `O[C@@H]1CO[C@H]2[C@@H]1OC[C@H]2Oc1nc2nc(N[C@H]3CCc4cc(/C=C/COC5CCCCO5)cc(F)c43)c(Cl)cc2[nH]1` (some centres unmarked) [Compound I-2-39], for which the “EC150 (compound concentration showing 150% relative to the control (100%))” value is 11 nM and the maximum response (Emax) was found to be 583%.

For the compound `O[C@@H]1CO[C@H]2[C@@H]1OC[C@H]2Oc1nc2nc(NC3CCc4cc(OCCOC5CC5)cc(F)c43)c(Cl)cc2[nH]1` (some centres unmarked) [Compound I-2-40], the “EC150 (compound concentration showing 150% relative to the control (100%))” value is recorded as 4.1 nM and the Emax was 604%.

In the case of `O[C@@H]1CO[C@H]2[C@@H]1OC[C@H]2Oc1nc2nc(NC3CCc4cc(OCCOC5CCC5)cc(F)c43)c(Cl)cc2[nH]1` (some centres unmarked) [Compound I-2-41], the “EC150 (compound concentration showing 150% relative to the control (100%))” value stood at 10 nM and the Emax is 604%.

`O[C@@H]1CO[C@H]2[C@@H]1OC[C@H]2Oc1nc2nc(NC3CCc4cc(OCCOC5CCCC5)cc(F)c43)c(Cl)cc2[nH]1` (some centres unmarked) [Compound I-2-42]: the “EC150 (compound concentration showing 150% relative to the control (100%))” value stood at 9.1 nM and the Emax amounted to 600%.

On to `CC(C)(C)OCCOc1cc(F)c2c(c1)CCC2Nc1nc2nc(O[C@@H]3CO[C@H]4[C@@H]3OC[C@H]4O)[nH]c2cc1Cl` (some centres unmarked) [Compound I-2-43], for which the “EC150 (compound concentration showing 150% relative to the control (100%))” value is reported as 31 nM and the Emax turned out to be 612%.

As for `COCOCCOc1cc(F)c2c(c1)CCC2Nc1nc2nc(O[C@@H]3CO[C@H]4[C@@H]3OC[C@H]4O)[nH]c2cc1Cl` (some centres unmarked) [Compound I-2-44], the “EC150 (compound concentration showing 150% relative to the control (100%))” value was determined as 3.8 nM and the Emax is 595%.

Turning to `Cc1cc(-c2cc(F)c3c(c2)CC[C@@H]3Nc2nc3nc(O[C@@H]4CO[C@H]5[C@@H]4OC[C@H]5O)[nH]c3cc2Cl)cnn1` [Compound I-2-45], the “EC150 (compound concentration showing 150% relative to the control (100%))” value is on record as 2.1 nM and the Emax stood at 711%.

Take `Cc1ncc(-c2cc(F)c3c(c2)CC[C@@H]3Nc2nc3nc(O[C@@H]4CO[C@H]5[C@@H]4OC[C@H]5O)[nH]c3cc2Cl)cn1` [Compound I-2-46]: the “EC150 (compound concentration showing 150% relative to the control (100%))” value was determined as 3.3 nM and the Emax was 708%.

With `O[C@@H]1CO[C@H]2[C@@H]1OC[C@H]2Oc1nc2nc(N[C@H]3CCc4cc(C5=CCOC5)cc(F)c43)c(Cl)cc2[nH]1` [Compound I-2-47], the “EC150 (compound concentration showing 150% relative to the control (100%))” value was determined as 2.3 nM and the maximal effect (Emax) is 724%.

Consider `CC(C)n1cc(-c2cc(F)c3c(c2)CC[C@@H]3Nc2nc3nc(O[C@@H]4CO[C@H]5[C@@H]4OC[C@H]5O)[nH]c3cc2Cl)ccc1=O` [Compound I-2-48], for which the “EC150 (compound concentration showing 150% relative to the control (100%))” value came to 6.2 nM and the maximal effect (Emax) is 737%.

As for `O[C@@H]1CO[C@H]2[C@@H]1OC[C@H]2Oc1nc2nc(NC3CCc4cc(O[C@@H]5CCOC5)cc(F)c43)c(Cl)cc2[nH]1` (some centres unmarked) [Compound I-2-49], the “EC150 (compound concentration showing 150% relative to the control (100%))” value amounted to 3.4 nM and the Emax came to 667%.

Regarding `O[C@@H]1CO[C@H]2[C@@H]1OC[C@H]2Oc1nc2nc(NC3CCc4cc(O[C@H]5CCOC5)cc(F)c43)c(Cl)cc2[nH]1` (some centres unmarked) [Compound I-2-50], the “EC150 (compound concentration showing 150% relative to the control (100%))” value stood at 1.9 nM and the maximal response (Emax) stood at 678%.

In the case of `O[C@@H]1CO[C@H]2[C@@H]1OC[C@H]2Oc1nc2nc(NC3CCc4cc(OC5COC5)cc(F)c43)c(Cl)cc2[nH]1` (some centres unmarked) [Compound I-2-51], the “EC150 (compound concentration showing 150% relative to the control (100%))” value was 4.7 nM and the Emax is 688%.

As to `COCCCOc1cc(F)c2c(c1)CCC2Nc1nc2nc(O[C@@H]3CO[C@H]4[C@@H]3OC[C@H]4O)[nH]c2cc1Cl` (some centres unmarked) [Compound I-2-52], the “EC150 (compound concentration showing 150% relative to the control (100%))” value came out at 3.7 nM and the Emax came to 629%.

As to `O[C@@H]1CO[C@H]2[C@@H]1OC[C@H]2Oc1nc2nc(NC3CCc4cc(OCC5COC5)cc(F)c43)c(Cl)cc2[nH]1` (some centres unmarked) [Compound I-2-53], the “EC150 (compound concentration showing 150% relative to the control (100%))” value is recorded as 4 nM and the Emax was found to be 637%.

`CC1(COc2cc(F)c3c(c2)CCC3Nc2nc3nc(O[C@@H]4CO[C@H]5[C@@H]4OC[C@H]5O)[nH]c3cc2Cl)COC1` (some centres unmarked) [Compound I-2-54]: the “EC150 (compound concentration showing 150% relative to the control (100%))” value worked out at 1.5 nM and the Emax was determined as 643%.

For `CS(=O)(=O)CCCOc1cc(F)c2c(c1)CCC2Nc1nc2nc(O[C@@H]3CO[C@H]4[C@@H]3OC[C@H]4O)[nH]c2cc1Cl` (some centres unmarked) [Compound I-2-55], the “EC150 (compound concentration showing 150% relative to the control (100%))” value is 3.6 nM and the maximum response (Emax) was 637%.

As to `COc1ncc(-c2cc(F)c3c(c2)CC[C@@H]3Nc2nc3nc(O[C@@H]4CO[C@H]5[C@@H]4OC[C@H]5O)[nH]c3cc2Cl)cn1` [Compound I-2-56], the “EC150 (compound concentration showing 150% relative to the control (100%))” value amounted to 0.81 nM and the maximum response (Emax) stood at 681%.

Turning to `O[C@@H]1CO[C@H]2[C@@H]1OC[C@H]2Oc1nc2nc(N[C@H]3CCc4cc(-c5cnc(C6CC6)nc5)cc(F)c43)c(Cl)cc2[nH]1` [Compound I-2-57], the “EC150 (compound concentration showing 150% relative to the control (100%))” value is 11 nM and the maximum response (Emax) came to 636%.

As to `O[C@@H]1CO[C@H]2[C@@H]1OC[C@H]2Oc1nc2nc(NC3CCc4cc(OCCOCC(F)F)cc(F)c43)c(Cl)cc2[nH]1` (some centres unmarked) [Compound I-2-59], the “EC150 (compound concentration showing 150% relative to the control (100%))” value is given as 4.5 nM and the Emax worked out at 634%.

For `O[C@@H]1CO[C@H]2[C@@H]1OC[C@H]2Oc1nc2nc(NC3CCc4cc(OC5CC6(COC6)C5)cc(F)c43)c(Cl)cc2[nH]1` (some centres unmarked) [Compound I-2-60], the “EC150 (compound concentration showing 150% relative to the control (100%))” value turned out to be 6.7 nM and the Emax turned out to be 634%.

`O[C@@H]1CO[C@H]2[C@@H]1OC[C@H]2Oc1nc2nc(N[C@H]3CCc4cc(-c5cncnc5)cc(F)c43)c(Cl)cc2[nH]1` [Compound I-2-61]: the “EC150 (compound concentration showing 150% relative to the control (100%))” value amounted to 3.1 nM and the maximal effect (Emax) is 649%.

`CN(C)c1ncc(-c2cc(F)c3c(c2)CC[C@@H]3Nc2nc3nc(O[C@@H]4CO[C@H]5[C@@H]4OC[C@H]5O)[nH]c3cc2Cl)cn1` [Compound I-2-62]: the “EC150 (compound concentration showing 150% relative to the control (100%))” value was 9.4 nM and the Emax was 638%.

For `O=c1[nH]cc(-c2cc(F)c3c(c2)CC[C@@H]3Nc2nc3nc(O[C@@H]4CO[C@H]5[C@@H]4OC[C@H]5O)[nH]c3cc2Cl)cc1F` [Compound I-2-63], the “EC150 (compound concentration showing 150% relative to the control (100%))” value is listed as 3.9 nM and the Emax was determined as 653%.

As for `O[C@@H]1CO[C@H]2[C@@H]1OC[C@H]2Oc1nc2nc(N[C@H]3CCc4cc(-c5cnc(C(F)(F)F)nc5)cc(F)c43)c(Cl)cc2[nH]1` [Compound I-2-64], the “EC150 (compound concentration showing 150% relative to the control (100%))” value came to 9.3 nM and the maximal response (Emax) was 676%.

`Cc1ccc(-c2cc(F)c3c(c2)CC[C@@H]3Nc2nc3nc(O[C@@H]4CO[C@H]5[C@@H]4OC[C@H]5O)[nH]c3cc2Cl)cn1` [Compound I-2-66]: the “EC150 (compound concentration showing 150% relative to the control (100%))” value was 8.6 nM and the Emax turned out to be 711%.

Turning to `O[C@@H]1CO[C@H]2[C@@H]1OC[C@H]2Oc1nc2nc(N[C@H]3CCc4cc(-c5ccc(C(F)(F)F)nc5)cc(F)c43)c(Cl)cc2[nH]1` [Compound I-2-67], the “EC150 (compound concentration showing 150% relative to the control (100%))” value amounted to 29 nM and the maximal effect (Emax) came to 683%.

Regarding `Cn1cc(-c2cc(F)c3c(c2)CC[C@@H]3Nc2nc3nc(O[C@@H]4CO[C@H]5[C@@H]4OC[C@H]5O)[nH]c3cc2Cl)cc(F)c1=O` [Compound I-2-68], the “EC150 (compound concentration showing 150% relative to the control (100%))” value is on record as 1.8 nM and the maximal effect (Emax) worked out at 600%.

Consider `CCc1ncc(-c2cc(F)c3c(c2)CC[C@@H]3Nc2nc3nc(O[C@@H]4CO[C@H]5[C@@H]4OC[C@H]5O)[nH]c3cc2Cl)cn1` [Compound I-2-69], for which the “EC150 (compound concentration showing 150% relative to the control (100%))” value is recorded as 3 nM and the maximal effect (Emax) turned out to be 598%.

Consider `Cn1ccc(-c2cc(F)c3c(c2)CC[C@@H]3Nc2nc3nc(O[C@@H]4CO[C@H]5[C@@H]4OC[C@H]5O)[nH]c3cc2Cl)n1` [Compound I-2-70], for which the “EC150 (compound concentration showing 150% relative to the control (100%))” value is on record as 5.2 nM and the Emax worked out at 583%.

In the case of `CCOc1ncc(-c2cc(F)c3c(c2)CC[C@@H]3Nc2nc3nc(O[C@@H]4CO[C@H]5[C@@H]4OC[C@H]5O)[nH]c3cc2Cl)cn1` [Compound I-2-71], the “EC150 (compound concentration showing 150% relative to the control (100%))” value is on record as 8.6 nM and the Emax came to 590%.

As to `O[C@@H]1CO[C@H]2[C@@H]1OC[C@H]2Oc1nc2nc(NC3CCc4cc(OCF)cc(F)c43)c(Cl)cc2[nH]1` (some centres unmarked) [Compound I-2-72], the “EC150 (compound concentration showing 150% relative to the control (100%))” value was 1.8 nM and the Emax amounted to 592%.

On to `CC(C)(O)Cn1cc(-c2cc(F)c3c(c2)CC[C@@H]3Nc2nc3nc(O[C@@H]4CO[C@H]5[C@@H]4OC[C@H]5O)[nH]c3cc2Cl)cn1` [Compound I-2-73], for which the “EC150 (compound concentration showing 150% relative to the control (100%))” value is listed as 1.4 nM and the maximal response (Emax) is 608%.

On to `O[C@@H]1CO[C@H]2[C@@H]1OC[C@H]2Oc1nc2nc(N[C@H]3CCc4cc(-c5cnn(C6COC6)c5)cc(F)c43)c(Cl)cc2[nH]1` [Compound I-2-74], for which the “EC150 (compound concentration showing 150% relative to the control (100%))” value is recorded as 1.5 nM and the Emax is 609%.
